In BindingDB's records for patent US11918568 (Sanford Burnham Prebys Medical Discovery Institute, 2024) one finds EC50 data, which are given here for one compound.

The experiment has as its target Nicotinamide phosphoribosyltransferase (Homo sapiens, UniProt P43490). Briefly: NAMPT Enzyme Activating Effect (In Vitro Cell-Free Enzyme Assay.

Sequence of Nicotinamide phosphoribosyltransferase (P43490 whole entry): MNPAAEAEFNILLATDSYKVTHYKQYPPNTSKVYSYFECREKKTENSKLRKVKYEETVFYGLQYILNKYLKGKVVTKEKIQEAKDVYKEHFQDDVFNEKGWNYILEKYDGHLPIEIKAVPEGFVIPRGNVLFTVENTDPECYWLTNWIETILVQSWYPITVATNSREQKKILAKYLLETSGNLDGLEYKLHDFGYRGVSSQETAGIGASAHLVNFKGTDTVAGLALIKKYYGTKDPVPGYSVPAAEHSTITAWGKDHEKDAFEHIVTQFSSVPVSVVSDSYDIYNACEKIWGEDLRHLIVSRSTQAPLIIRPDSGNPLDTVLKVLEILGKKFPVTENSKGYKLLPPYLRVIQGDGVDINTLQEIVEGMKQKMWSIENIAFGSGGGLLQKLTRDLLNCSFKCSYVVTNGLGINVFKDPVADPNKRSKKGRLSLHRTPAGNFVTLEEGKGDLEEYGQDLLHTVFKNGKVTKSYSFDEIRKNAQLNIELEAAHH

Usually EC50 stands for the concentration needed to bring the measured effect to its halfway point. Low values mean higher potency in that assay, high ones lower potency in that assay. Compound `O=C(NCc1ccncc1)Nc1ccn2nc(-c3ccccc3)nc2c1` [US11918568, Example 15] showed an EC50 of 230 nM.
